Experiments:
[1] = tested on: sensitive GBM (U87); assay: Cell cycle assay (PI staining, flow cytometry); assay type: cell-based; details: TMZ 300 µM
Description: (§1) TMZ acts on DNA after being absorbed into tumor cells in the human body, causing alkylation damage to the DNAs, thereby forming DNA double-strand breaks or cross-linking, arresting the cell cycle, and triggering the proliferation arrest or apoptosis of the tumor cells. To explore the mechanism by which the resistant GBM cell strains resist TMZ, a cell cycle assay was performed to determine the effect of TMZ on the cell cycle of different GBM cell strains. A. Cell culture and treatment: See Example 5 for the procedures of U87 and T98G cell culture and TMZ treatment. The concentration of TMZ used in this example was 300 µM. B. Preparation of cell samples: The Beyotime cell cycle kit (Beyotime, C1052) was used according to the manufacturer's instructions. 1 × 10^6 cells were added to a centrifuge tube for later use and centrifuged at 1000 g for 3-5 min to precipitate the cells. The supernatant was discarded by pipetting, and 1 mL of pre-cooled PBS was added to resuspend the cells. The mixture was transferred to a 1.5 mL centrifuge tube. The cells were pelleted by centrifugation, and the supernatant was discarded by pipetting. C. Cell fixation: The cells were added to 1 mL of pre-cooled 70% ethanol, mixed well by pipetting, and fixed at 4 °C for 30 min. The mixture was centrifuged at about 1000 g for 3-5 min to pellet the cells. The supernatant was discarded by pipetting, and about 1 mL of PBS pre-cooled in an ice bath was added to resuspend the cells. The cells were pelleted again by centrifugation, and the supernatant was discarded by pipetting. D. Preparation of and staining with propidium iodide (PI) staining solution: Referring to Table 2, an appropriate amount of PI staining solution was prepared according to the number of samples to be tested. Table 2. Preparation of PI staining solutions
(§2) Staining: 0.5 mL of the PI staining solution was added to each tube of cell samples, and the cell pellet was slowly and fully resuspended and incubated in the dark at 37 °C for 30 min. The mixture was preserved at 4 °C or in an ice bath in the dark. The flow cytometry was completed within 24 h after the staining was completed.
(§3) E. Flow cytometry detection and analysis: The red fluorescence was detected at an excitation wavelength of 488 nm and the light scattering was also detected on a flow cytometer (Agilent, Novocyte3000). The cellular DNA content assay and light scattering analysis were performed using an appropriate analysis software (Agilent, Novoexpress).

[2] = tested on: resistant GBM (T98G); assay: Cell cycle assay (PI staining, flow cytometry); assay type: cell-based; details: TMZ 300 µM, compared to control DMSO
Description: as §1, §2, §3

[3] = tested on: T98G; assay: Flow cytometry of immune activation ligands after TMZ treatment; assay type: cell-based; details: TMZ 1000 µM, 48 h; CD112, CD155, B7-H6, CD54, CD70, CD48, CD1d, PD-L1
Description: Immune surveillance is an important mechanism for identifying and removing tumor cells, and the dynamic expression of proteins related to immune activation on the membrane of tumor cells is also the key to their recognition by immune cells or recognition escape. In this example, the changes in expression of immune-related proteins when GBM is resisting the effect of TMZ were further studied, so as to provide a theoretical basis for the immunotherapy. • A. GBM cell culture and treatment: See Example 5 for the procedures of T98G cell culture. The cells were cultured until an 80%-90% confluence and digested with pancreatin at 37 °C for 5 min. DMEM medium of a two-fold volume was added to stop the digestion. The cell suspension was transferred to a centrifuge tube and centrifuged at 300 g for 5 min. The cell pellet was resuspended in DMEM medium, and the cells were counted by AO/PI staining. According to the counting result, the density of the cell suspension was adjusted to 1 × 10^5 cells/mL. After that, an appropriate volume of TMZ stock solution (100 mM) was added to the cell suspension to reach a final TMZ concentration of 1000 µM in the cell suspension. […]
The cells treated with TMZ for 48 h were digested with a pancreatin digestion solution and centrifuged, and the supernatant was discarded. […] The cells were washed with PBS, centrifuged, resuspended, and detected on a flow cytometer. […]

[4] = in vivo, cited from earlier work
[5] = tested on: resistant GBM (T98G); assay: In vitro killing of tumor target cells (CellTiter-Glo); assay type: cell-based
Description: Furthermore, in this example, the in vitro efficacy of iPSC-NK cells in combination with TMZ was explored by monitoring the killing of tumor target cells. • A. The procedures for the culture, digestion, and plating of GBM tumor cells T98G are described in Example 5. • B. TMZ preparation: See Example 5 for the procedures of treating cells. In this example, the cells were pre-treated at 1000 µM for 48 h. • C. iPSC-NK cells were prepared as described in Example 8. • D. Co-incubation for killing. According to the preset effector-to-target ratios (1:8, 1:4, and 1:1), an appropriate volume of iNK cells in an expansion culture was taken (note that the iNK cell viability should be kept at 90% or higher) and counted by AO/PI staining. According to the counting result, the cell suspension was adjusted to a density of 1 × 10^5 cells/mL. The tumor cells were seeded at 1 × 10^4 cells/well. After the adherent culture of T98G cells in the 96-well plates (6 h after re-digestion and inoculation), the NK cell suspension was added to the T98G plates according to the grouping design. After 18 h of co-incubation, the viability of the T98G cells was detected using the CellTiter-Glo® luminescent cell viability assay kit. Three replicates were set in each group. • E. Cell viability assay. At preset time points (8, 16, 24, and 48 h), the cells were collected. The CellTiter-Glo® luminescent cell viability assay kit was used according to the manufacturer's instructions. An appropriate volume of the CellTiter-Glo® solution was mixed with a DMEM medium in a ratio of 1:1 to prepare a working solution. The CellTiter-Glo® working solution was added to the 96-well plate at 50 µL/well. The plate was incubated at room temperature for 10 min in the dark and then detected on a microplate reader for the chemiluminescence. • F. Killing rate calculation. Killing rate (%) = (fluorescence intensity in the untreated group - fluorescence intensity in the treatment group)/fluorescence intensity in the untreated group × 100%. * denotes p < 0.05 in a T test, and ** denotes p < 0.01. […]

[6] = tested on: TMZ-resistant GBM (T98G); assay: CellTiter-Glo cell viability assay, sensitivity response to TMZ; assay type: cell-based
Description: (§4) U87 and T98G cells were cultured until an 80%-90% confluence and digested with pancreatin (Beyotime, C0201-100mL) at 37 °C for 5 min. DMEM medium (Gibco, 11965084) of a two-fold volume was added to stop the digestion. The cell suspension was transferred to a centrifuge tube and centrifuged at 300 g for 5 min. The cell pellet was resuspended in DMEM medium, and the cells were counted by AO (acridine orange)/PI (propidium iodide) staining. According to the counting result, the density of the cell suspension was adjusted to 1 × 10^5 cells/mL. The cell suspension was added to the 96-well plate at 100 µL/well as required for grouping, and then the 96-well plate was incubated in an incubator at 37 °C overnight.
(§5) TMZ powder (Sigma, T2577-25MG) was dissolved in an appropriate volume of DMSO to prepare a TMZ stock solution at a concentration of 100 mM. The TMZ solution with the highest concentration (5000 µM) was prepared as follows: 225 µL of the TMZ stock solution was diluted with 4.5 mL of DMEM medium, and the resultant solution was then diluted to give TMZ working solutions at concentrations of 1000 µM, 500 µM, 200 µM, 100 µM, and 10 µM.
(§6) After the U87 and T98G cells were cultured overnight, and the adherent growth and the logarithmic growth phase were observed, the TMZ working solutions at the corresponding working concentration were added according to the grouping design at 100 µL/well, and the cells were incubated in the incubator. […]
(§7) The CellTiter-Glo® luminescent cell viability assay kit (Promega, G7572) was used, and the procedures in the manufacturer's instructions were performed. An appropriate volume of the CellTiter-Glo® solution was mixed with a DMEM medium in a ratio of 1:1 to prepare a working solution. The CellTiter-Glo® working solution was added to the 96-well plate at 50 µL/well. The plate was incubated at room temperature for 10 min in the dark and then detected on a microplate reader (TECAN, Infinite®200 PRO) for the chemiluminescence.
(§8) The assay and detection schemes were the same as those in Example 5.1, and a concentration of 300 µM in the sensitive interval in Example 5.1 was selected as the TMZ concentration.

[7] = tested on: TMZ-sensitive GBM (U87); assay: as above; assay type: cell-based
Description: as §4, §5, §6, §7, §8

[8] = TMZ 300 µM, 48 h, compared to control DMSO

In the case of `Cn1nnc2c(C(N)=O)ncn2c1=O` [TMZ, 3,4-dihydro-3-methyl-4-oxoimidazo[5,1-d]-asymmetric-tetrazol-8-amide], the “DNA content in the G2/M phase” value ([1]; 24 h) is reported as 16.86%, the “DNA content in the G2/M phase” value ([1]; 48 h) is reported as 23.22% and the “DNA content in the G2/M phase” value ([1]; 72 h) is reported as 40.01%. The “DNA in the G2/M phase” value [2] was “did not change significantly”, the “expression of immune activation ligands” value [3] was “up-regulated expression to different extents” and the oral bioavailability ([4]; po) was about 100%. The “concentration detected in the cerebrospinal fluid, of the TMZ plasma concentration” value [4] was “about 20%”, the “killing effect against target cells” value ([5]; 8 h, 16 h, 24 h and 48 h, effector-to-target ratios 1:8, 1:4, 1:1, TMZ 1000 µM pretreatment 48 h) was “weak killing effect” and the “killing effects / in vitro killing activity” value ([5]; E:T = 1:1, co-incubation 8 h) was “substantially no killing effects”. For the same molecule, the killing effect ([5]; at 48 h, TMZ 1000 µM) was “about 10%”, the viability at 200 µM ([6]; Homo sapiens, T98G, TMZ 200 µM, 72 h, read-out: viable T98G cell count) was at least 80% and the viability at 300 µM ([6]; Homo sapiens, T98G, TMZ 300 µM, at 72 h, read-out: viable cell count (T98G)) was over 80%. The viability at 500 µM ([6]; Homo sapiens, T98G, TMZ 500 µM, 72 h, read-out: viable T98G cell count) was 70%, the “growth of T98G cells (microscopic results)” value [6, 8] was “not greatly different” and the viability at 200 µM ([7]; Homo sapiens, U-87 MG, TMZ 200 µM, 72 h, read-out: viable U87 cell count) was about 50%. The viability at 300 µM ([7]; Homo sapiens, U-87 MG, TMZ 300 µM, at 72 h, read-out: viable U87 cell count) was under 40%, the viability at 500 µM ([7]; Homo sapiens, U-87 MG, TMZ 500 µM, 72 h, read-out: viable U87 cell count) was about 40% and the “growth of U87 cells (microscopic results)” value [7, 8] was “significantly inhibited”.
